Tests used:
[1] = molecular target: T1, biliverdin IX beta reductase (BLVRB) (Homo sapiens, UniProt P30043); assay: BLVRB flavin reductase inhibition assay (FMN/NADPH, absorbance at 340 nm); type: biochemical; details: 300 nM recombinant BLVRB, 200 μM FMN, 100 μM NADPH, 100 mM potassium phosphate pH 7.6, 37° C.; read-out: IC50, concentration of inhibitor needed to inhibit the target enzyme by 50% (flavin reductase activity of BLVRB)
T1 construct: BLVRBWT and BLVRBS111L open reading frames were PCR-amplified and directionally-cloned into pGEX-KG expression vector; GST (N, cleaved yes); made in house; LB medium, IPTG induction
T1 sequence (P30043 1-206): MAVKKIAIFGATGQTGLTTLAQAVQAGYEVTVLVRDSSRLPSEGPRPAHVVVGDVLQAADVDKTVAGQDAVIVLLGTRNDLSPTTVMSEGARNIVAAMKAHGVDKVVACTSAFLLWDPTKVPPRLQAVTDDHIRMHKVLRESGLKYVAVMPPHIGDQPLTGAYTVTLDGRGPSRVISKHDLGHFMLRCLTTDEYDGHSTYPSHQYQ
Protocol: In one embodiment, the agent is a. chemical compound. An example of such a compound is described in Example 7. Inhibition of enzyme activity by the compound was tested in a reaction containing 100 mM potassium phosphate, pH 7.6, 200 μM FMN (flavin mononucleotide), 100 μM NADPH.
Reactions were initiated by the addition of 300 nM recombinant BLVRB. Enzymatic activity was monitored by following the decrease in absorbance at 340 nm which corresponds to the oxidation of NADPH to NADP^+. […] (FIG. 9)

[2] = test system: control or iPSC/BLVRB^S111L cells (NCRM1 iPSCs); assay: TBHP-induced ROS accumulation in genetically-modified iPSCs (CellROX Green, flow cytometry); type: cell-based; details: Homo sapiens, 1 hour at 37° C., read-out: concentration causing ROS accumulation in 50% of cells (EC50)
Protocol: FIG. 3i is a bar graph showing ROS expression by genetically-modified NCRM1 iPSCs. About 1×10^5, cells were labeled as in FIG. 2h, and treated (or not) with 200 μM tert-butyl hydroperoxide (TBHP) for 1 hour at 37° C., and ROS-expressing cells were quantitated by flow cytometry after a 60 minute period loading with cell-permeable CellROX Green (500 nM) as indicator (N=6); p-values *<0.05; **<0.01; ***<0.001; ****<0.0001. From left to right, the bars correspond to activity in control cells, activity in cells having BLVRB^WT, and activity in cells having BLVRB^S111L.
Hematopoietic-derived (CD34^+) induced pluripotent stein cells (iPSC) expressing endogenous BLVRB were initially developed as heterozygous models designed to phenocopy zygosity state in subject cohorts. […]
Human CD34^+-derived NCRM1 induced pluripotent stem cells (iPSC) were genetically modified using lentivirus infection (MOI 9) for generation of stable cell lines after puromycin selection (iPSC/BLVRB^S111L, iPSC/BLVRB^WT, iPSC/Control). Oxidation/reduction activity was quantified in vitro using the NADPH-dependent redox coupler resazurin; cells (4×10^4/well) were plated and propagated in mTeSR1 medium and at 24 hours were incubated with resazurin (0.1 v/v) followed by serial spectrofluorimetric detection (530 nm excitation, 590 nm emission) for the reduced resorufin byproduct. […]

IC50 [1] [µM]	Compound	EC50 [2] [µM]
30.7	COc1ccc2nc3cc(Cl)ccc3c(Nc3ccc(O)c(CN4CCN(C)CC4)c3)c2c1 [compound 1301]	
	CC(C)(C)OO [TBHP, tert-butyl hydroperoxide]	200

Reference: patent publication US10543286B2, “Methods for increasing platelet count by inhibiting biliverdin IXβ reductase” (The Research Foundation for The State University of New York, priority 2015, dated 2020)
